Legend:
KIT(V559DT670I) = molecular target: T1, KIT(V559DT670I) (Homo sapiens, UniProt P10721, T670I/V559D); assay: kinome scan; format: binding; conditions: 10 µM
T1 construct: purchased DiscoverX (KINOMEscan)

PDPK1 = molecular target: T2, PDPK1 (Homo sapiens, UniProt O15530); assay: kinome scan; format: binding; conditions: 10 µM
T2 construct: purchased DiscoverX (KINOMEscan)

NEK11 = molecular target: T3, NEK11 (Homo sapiens, UniProt Q8NG66); assay: kinome scan; format: binding; conditions: 10 µM
T3 construct: purchased DiscoverX (KINOMEscan)

MAP4K4 = molecular target: T4, MAP4K4 (Homo sapiens, UniProt O95819); assay: kinome scan; format: binding; conditions: 10 µM
T4 construct: purchased DiscoverX (KINOMEscan)

EPHB3 = molecular target: T5, EPHB3 (Homo sapiens, UniProt P54753); assay: kinome scan; format: binding; conditions: 10 µM
T5 construct: purchased DiscoverX (KINOMEscan)

p38-alpha = molecular target: T6, p38-alpha (Homo sapiens, UniProt Q16539); assay: kinome scan; format: binding; conditions: 10 µM
T6 construct: purchased DiscoverX (KINOMEscan)

TLK2 = molecular target: T7, TLK2 (Homo sapiens, UniProt Q86UE8); assay: kinome scan; format: binding; conditions: 10 µM
T7 construct: purchased DiscoverX (KINOMEscan)

[1] = molecular target: T8, ABL1(H396P)-nonphosphorylated (Homo sapiens, UniProt P00519, H396P); assay: kinome scan; format: binding; conditions: 10 µM
T8 construct: purchased DiscoverX (KINOMEscan)

RET(V804M) = molecular target: T9, RET(V804M) (Homo sapiens, UniProt P07949, V804M); assay: kinome scan; format: binding; conditions: 10 µM
T9 construct: purchased DiscoverX (KINOMEscan)

PIP5K2C = molecular target: T10, PIP5K2C (Homo sapiens, UniProt Q8TBX8); assay: kinome scan; format: binding
T10 construct: purchased DiscoverX (KINOMEscan)

MLK3 = molecular target: T11, MLK3 (Homo sapiens, UniProt Q16584); assay: kinome scan; format: binding; conditions: 10 µM
T11 construct: purchased DiscoverX (KINOMEscan)

NIM1 = molecular target: T12, NIM1 (Homo sapiens, UniProt Q8IY84); assay: kinome scan; format: binding; conditions: 10 µM
T12 construct: purchased DiscoverX (KINOMEscan)

EGFR(E746-A750del) = molecular target: T13, EGFR(E746-A750del) (Homo sapiens, UniProt P00533, DEL746-750); assay: kinome scan; format: binding; conditions: 10 µM
T13 construct: purchased DiscoverX (KINOMEscan)

DYRK2 = molecular target: T14, DYRK2 (Homo sapiens, UniProt Q92630); assay: kinome scan; format: binding
T14 construct: purchased DiscoverX (KINOMEscan)
T14 sequence (Q92630 1-601): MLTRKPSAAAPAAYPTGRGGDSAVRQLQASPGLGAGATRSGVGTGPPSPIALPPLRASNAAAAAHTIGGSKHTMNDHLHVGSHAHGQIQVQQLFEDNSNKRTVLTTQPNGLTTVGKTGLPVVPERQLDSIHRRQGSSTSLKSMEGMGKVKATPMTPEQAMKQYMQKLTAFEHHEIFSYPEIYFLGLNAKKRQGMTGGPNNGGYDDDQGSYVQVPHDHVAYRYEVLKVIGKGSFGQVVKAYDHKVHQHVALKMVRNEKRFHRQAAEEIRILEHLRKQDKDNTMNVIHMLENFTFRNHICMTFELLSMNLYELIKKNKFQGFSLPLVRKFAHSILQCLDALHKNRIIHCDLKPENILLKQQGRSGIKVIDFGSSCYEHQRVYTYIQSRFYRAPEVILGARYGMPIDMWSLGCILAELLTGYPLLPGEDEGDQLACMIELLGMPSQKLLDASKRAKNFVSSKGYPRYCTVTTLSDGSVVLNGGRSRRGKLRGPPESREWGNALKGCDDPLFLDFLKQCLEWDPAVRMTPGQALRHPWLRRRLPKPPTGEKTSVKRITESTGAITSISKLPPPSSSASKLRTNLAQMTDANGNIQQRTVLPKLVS

NEK9 = molecular target: T15, NEK9 (Homo sapiens, UniProt Q8TD19); assay: kinome scan; format: binding; conditions: 10 µM
T15 construct: purchased DiscoverX (KINOMEscan)

CDKL1 = molecular target: T16, CDKL1 (Homo sapiens, UniProt Q00532); assay: kinome scan; format: binding; conditions: 10 µM
T16 construct: purchased DiscoverX (KINOMEscan)

HIPK3 = molecular target: T17, HIPK3 (Homo sapiens, UniProt Q9H422); assay: kinome scan; format: binding; conditions: 10 µM
T17 construct: purchased DiscoverX (KINOMEscan)

MKK7 = molecular target: T18, MKK7 (Homo sapiens, UniProt O14733); assay: kinome scan; format: binding; conditions: 10 µM
T18 construct: purchased DiscoverX (KINOMEscan)

TNIK = molecular target: T19, TNIK (Homo sapiens, UniProt Q9UKE5); assay: kinome scan; format: binding; conditions: 10 µM
T19 construct: purchased DiscoverX (KINOMEscan)

[2] = test system: Pregnane X receptor (PXR) signaling pathway; set-up: method as in CHEMBL3215112; conditions: reported activity, data mining; ref CHEMBL3215112; cited from earlier work
KIT(V559DV654A) = molecular target: T20, KIT(V559DV654A) (Homo sapiens, UniProt P10721, V559D/V654A); assay: kinome scan; format: binding; conditions: 10 µM
T20 construct: purchased DiscoverX (KINOMEscan)

TSSK1B = molecular target: T21, TSSK1B (Homo sapiens, UniProt Q9BXA7); assay: kinome scan; format: binding; conditions: 10 µM
T21 construct: purchased DiscoverX (KINOMEscan)

CSNK1G1 = molecular target: T22, CSNK1G1 (Homo sapiens, UniProt Q9HCP0); assay: kinome scan; format: binding; conditions: 10 µM
T22 construct: purchased DiscoverX (KINOMEscan)

RET(V804L) = molecular target: T23, RET(V804L) (Homo sapiens, UniProt P07949, V804L); assay: kinome scan; format: binding; conditions: 10 µM
T23 construct: purchased DiscoverX (KINOMEscan)

CHEK1 = molecular target: T24, CHEK1 (Homo sapiens, UniProt O14757); assay: kinome scan; format: binding
T24 construct: purchased DiscoverX (KINOMEscan)

CAMK1D = molecular target: T25, CAMK1D (Homo sapiens, UniProt Q8IU85); assay: kinome scan; format: binding; conditions: 10 µM
T25 construct: purchased DiscoverX (KINOMEscan)

MEK4 = molecular target: T26, MEK4 (Homo sapiens, UniProt P45985); assay: kinome scan; format: binding; conditions: 10 µM
T26 construct: purchased DiscoverX (KINOMEscan)

EPHA3 = molecular target: T27, EPHA3 (Homo sapiens, UniProt P29320); assay: kinome scan; format: binding; conditions: 10 µM
T27 construct: purchased DiscoverX (KINOMEscan)

[3] = molecular target: T28, ABL1(H396P)-phosphorylated (Homo sapiens, UniProt P00519, H396P); assay: kinome scan; format: binding; conditions: 10 µM
T28 construct: purchased DiscoverX (KINOMEscan)

PIM1 = molecular target: T29, PIM1 (Homo sapiens, UniProt P11309); assay: kinome scan; format: binding
T29 construct: purchased DiscoverX (KINOMEscan)

ROCK1 = molecular target: T30, ROCK1 (Homo sapiens, UniProt Q13464); assay: kinome scan; format: binding; conditions: 10 µM
T30 construct: purchased DiscoverX (KINOMEscan)

T24 sequence (O14757 whole entry): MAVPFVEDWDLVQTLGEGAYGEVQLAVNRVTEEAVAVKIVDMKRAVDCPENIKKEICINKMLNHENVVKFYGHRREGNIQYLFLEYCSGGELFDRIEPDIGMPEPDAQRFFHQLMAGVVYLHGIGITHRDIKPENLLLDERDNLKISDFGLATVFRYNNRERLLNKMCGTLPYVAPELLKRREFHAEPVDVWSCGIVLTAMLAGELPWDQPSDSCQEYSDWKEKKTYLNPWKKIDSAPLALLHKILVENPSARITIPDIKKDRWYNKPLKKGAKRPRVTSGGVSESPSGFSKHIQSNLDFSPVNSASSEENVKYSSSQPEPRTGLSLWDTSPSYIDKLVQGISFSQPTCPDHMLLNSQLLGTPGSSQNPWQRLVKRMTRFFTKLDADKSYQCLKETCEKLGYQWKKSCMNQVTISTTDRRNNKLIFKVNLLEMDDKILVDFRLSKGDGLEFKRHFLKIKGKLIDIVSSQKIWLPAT
T29 sequence (P11309 whole entry): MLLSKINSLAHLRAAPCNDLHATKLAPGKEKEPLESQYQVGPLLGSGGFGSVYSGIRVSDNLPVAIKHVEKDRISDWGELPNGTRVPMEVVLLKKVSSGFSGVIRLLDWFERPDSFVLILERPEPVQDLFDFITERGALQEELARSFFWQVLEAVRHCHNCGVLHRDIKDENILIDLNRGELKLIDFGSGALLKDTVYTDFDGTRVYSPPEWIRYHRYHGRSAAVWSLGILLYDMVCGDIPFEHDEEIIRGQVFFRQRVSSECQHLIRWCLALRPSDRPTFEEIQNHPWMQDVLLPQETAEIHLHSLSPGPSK
T10 sequence (Q8TBX8 whole entry): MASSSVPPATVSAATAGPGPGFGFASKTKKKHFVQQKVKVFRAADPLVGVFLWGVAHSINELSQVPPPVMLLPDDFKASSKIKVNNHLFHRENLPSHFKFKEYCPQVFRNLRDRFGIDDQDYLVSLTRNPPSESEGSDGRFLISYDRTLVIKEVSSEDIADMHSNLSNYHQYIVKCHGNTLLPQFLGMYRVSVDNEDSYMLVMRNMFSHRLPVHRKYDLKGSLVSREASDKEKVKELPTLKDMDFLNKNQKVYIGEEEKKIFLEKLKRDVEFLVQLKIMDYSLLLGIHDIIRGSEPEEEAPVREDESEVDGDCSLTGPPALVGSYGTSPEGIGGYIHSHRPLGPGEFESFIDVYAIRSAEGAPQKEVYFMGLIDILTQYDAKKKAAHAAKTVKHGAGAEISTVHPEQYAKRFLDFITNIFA
T22 sequence (Q9HCP0 whole entry): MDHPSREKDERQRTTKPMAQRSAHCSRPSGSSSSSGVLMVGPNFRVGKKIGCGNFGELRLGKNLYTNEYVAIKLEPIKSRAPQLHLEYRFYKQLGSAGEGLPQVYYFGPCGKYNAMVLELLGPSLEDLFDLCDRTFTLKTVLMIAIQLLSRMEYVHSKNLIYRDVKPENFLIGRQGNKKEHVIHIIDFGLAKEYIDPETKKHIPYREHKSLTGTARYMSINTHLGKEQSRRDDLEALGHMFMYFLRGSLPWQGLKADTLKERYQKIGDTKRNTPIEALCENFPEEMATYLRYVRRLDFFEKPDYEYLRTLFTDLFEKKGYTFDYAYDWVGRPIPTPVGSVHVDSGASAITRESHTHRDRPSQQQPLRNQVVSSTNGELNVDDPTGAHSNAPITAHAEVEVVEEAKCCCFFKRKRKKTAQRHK
T11 sequence (Q16584 whole entry): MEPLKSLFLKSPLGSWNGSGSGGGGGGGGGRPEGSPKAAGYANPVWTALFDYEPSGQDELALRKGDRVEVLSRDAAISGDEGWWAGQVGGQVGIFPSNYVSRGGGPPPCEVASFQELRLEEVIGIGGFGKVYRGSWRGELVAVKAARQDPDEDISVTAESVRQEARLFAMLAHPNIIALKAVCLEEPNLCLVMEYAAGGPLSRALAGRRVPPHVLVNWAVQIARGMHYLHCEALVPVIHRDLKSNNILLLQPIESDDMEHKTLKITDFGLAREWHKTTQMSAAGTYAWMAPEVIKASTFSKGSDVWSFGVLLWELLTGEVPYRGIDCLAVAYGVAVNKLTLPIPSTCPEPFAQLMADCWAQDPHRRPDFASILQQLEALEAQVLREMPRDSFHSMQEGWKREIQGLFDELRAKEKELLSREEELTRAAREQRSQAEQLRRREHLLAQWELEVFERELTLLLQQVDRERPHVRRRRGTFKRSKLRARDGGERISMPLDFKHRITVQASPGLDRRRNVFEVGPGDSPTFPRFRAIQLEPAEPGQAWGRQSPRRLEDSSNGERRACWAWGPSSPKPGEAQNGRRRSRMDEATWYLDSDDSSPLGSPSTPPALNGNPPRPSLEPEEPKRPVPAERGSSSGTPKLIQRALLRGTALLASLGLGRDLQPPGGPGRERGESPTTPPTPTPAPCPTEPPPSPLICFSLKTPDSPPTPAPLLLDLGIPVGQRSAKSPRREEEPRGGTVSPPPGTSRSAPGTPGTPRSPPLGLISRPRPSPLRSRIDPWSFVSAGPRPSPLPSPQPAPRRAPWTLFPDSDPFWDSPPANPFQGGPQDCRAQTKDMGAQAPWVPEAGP
T13 sequence (P00533 with tags, fused parts or gaps DEL746-750 limits assumed): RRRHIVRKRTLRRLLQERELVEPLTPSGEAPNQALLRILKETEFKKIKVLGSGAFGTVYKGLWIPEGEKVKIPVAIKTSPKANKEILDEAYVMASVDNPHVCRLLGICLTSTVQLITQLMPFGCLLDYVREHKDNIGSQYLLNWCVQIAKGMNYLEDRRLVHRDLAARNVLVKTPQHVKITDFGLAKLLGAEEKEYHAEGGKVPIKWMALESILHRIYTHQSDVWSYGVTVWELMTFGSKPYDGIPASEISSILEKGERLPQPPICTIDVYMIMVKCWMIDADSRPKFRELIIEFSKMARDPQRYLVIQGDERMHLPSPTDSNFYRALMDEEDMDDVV
T27 sequence (P29320 21-983): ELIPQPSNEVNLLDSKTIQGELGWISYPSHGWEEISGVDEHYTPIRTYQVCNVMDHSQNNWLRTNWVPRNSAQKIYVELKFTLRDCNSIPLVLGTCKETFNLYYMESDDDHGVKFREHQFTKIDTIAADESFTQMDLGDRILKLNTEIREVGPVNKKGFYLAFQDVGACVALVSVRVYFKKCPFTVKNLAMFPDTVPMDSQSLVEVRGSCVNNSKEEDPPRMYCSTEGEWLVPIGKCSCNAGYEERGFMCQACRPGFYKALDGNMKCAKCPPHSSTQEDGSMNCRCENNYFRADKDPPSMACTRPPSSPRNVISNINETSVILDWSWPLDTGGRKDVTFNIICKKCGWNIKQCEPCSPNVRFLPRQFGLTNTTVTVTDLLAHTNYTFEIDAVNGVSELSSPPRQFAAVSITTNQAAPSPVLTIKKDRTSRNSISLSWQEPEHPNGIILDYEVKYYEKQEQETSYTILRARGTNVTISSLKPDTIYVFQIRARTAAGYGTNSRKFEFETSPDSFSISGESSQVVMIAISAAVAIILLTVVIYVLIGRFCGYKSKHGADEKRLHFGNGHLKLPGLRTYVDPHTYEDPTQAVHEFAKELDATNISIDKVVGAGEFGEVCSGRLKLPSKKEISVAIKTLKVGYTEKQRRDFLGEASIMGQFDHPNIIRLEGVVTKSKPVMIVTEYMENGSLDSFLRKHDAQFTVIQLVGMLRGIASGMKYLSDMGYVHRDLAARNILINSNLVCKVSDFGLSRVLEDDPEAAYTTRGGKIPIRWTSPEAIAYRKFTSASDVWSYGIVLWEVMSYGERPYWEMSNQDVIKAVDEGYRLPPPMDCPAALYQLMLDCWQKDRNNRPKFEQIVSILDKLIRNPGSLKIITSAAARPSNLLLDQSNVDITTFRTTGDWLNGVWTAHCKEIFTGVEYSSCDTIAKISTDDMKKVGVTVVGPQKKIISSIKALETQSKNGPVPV
T21 sequence (Q9BXA7 whole entry): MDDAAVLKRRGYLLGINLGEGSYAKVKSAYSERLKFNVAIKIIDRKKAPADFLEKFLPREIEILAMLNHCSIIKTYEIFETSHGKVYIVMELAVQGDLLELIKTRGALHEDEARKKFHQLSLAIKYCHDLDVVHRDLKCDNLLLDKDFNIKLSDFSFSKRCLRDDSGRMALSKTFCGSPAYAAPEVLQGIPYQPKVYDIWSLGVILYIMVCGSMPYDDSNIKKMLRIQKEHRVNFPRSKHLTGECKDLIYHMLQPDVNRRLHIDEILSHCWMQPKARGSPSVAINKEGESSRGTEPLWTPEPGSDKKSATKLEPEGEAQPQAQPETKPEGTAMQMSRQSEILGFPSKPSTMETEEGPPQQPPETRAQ
T26 sequence (P45985 whole entry): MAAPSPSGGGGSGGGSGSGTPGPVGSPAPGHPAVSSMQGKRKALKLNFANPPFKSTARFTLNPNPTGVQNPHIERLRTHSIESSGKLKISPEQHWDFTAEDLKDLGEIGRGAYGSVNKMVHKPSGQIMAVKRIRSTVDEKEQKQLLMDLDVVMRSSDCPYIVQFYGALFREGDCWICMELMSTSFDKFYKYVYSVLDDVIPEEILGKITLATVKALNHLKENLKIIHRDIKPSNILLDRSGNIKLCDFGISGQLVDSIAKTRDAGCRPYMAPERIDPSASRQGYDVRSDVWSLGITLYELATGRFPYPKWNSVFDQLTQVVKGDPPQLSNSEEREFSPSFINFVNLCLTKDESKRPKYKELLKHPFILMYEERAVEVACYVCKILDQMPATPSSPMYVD
T6 sequence (Q16539 whole entry): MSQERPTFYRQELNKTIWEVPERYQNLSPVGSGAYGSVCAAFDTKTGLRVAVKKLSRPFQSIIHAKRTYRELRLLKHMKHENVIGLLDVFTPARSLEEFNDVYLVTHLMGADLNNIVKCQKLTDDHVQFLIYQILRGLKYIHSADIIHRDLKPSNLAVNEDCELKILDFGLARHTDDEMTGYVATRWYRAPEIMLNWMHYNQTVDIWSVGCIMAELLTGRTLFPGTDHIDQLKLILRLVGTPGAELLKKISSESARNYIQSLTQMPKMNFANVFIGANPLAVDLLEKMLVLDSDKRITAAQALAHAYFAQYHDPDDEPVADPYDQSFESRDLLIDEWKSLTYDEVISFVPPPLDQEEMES

`Nc1ccc(N=Nc2ccccc2)c(N)n1` [phenazopyridine, 2,6-diamino-3-(phenylazo)pyridine] gave a kinase inhibition (KIT(V559DT670I)) of 71, a kinase inhibition (PDPK1) of 100 and a kinase inhibition (NEK11) of 100. It also gave a kinase inhibition (MAP4K4) of 100, a kinase inhibition (EPHB3) of 85 and a kinase inhibition (p38-alpha) of 100. The kinase inhibition (TLK2) was 100, the kinase inhibition [1] was 48 and the “remaining binding (% of control)” value (RET(V804M)) was 100. For the same compound, the “remaining binding (% of control)” value (PIP5K2C; 10 µM) was 2.3, the remaining binding at 10 µM (PIP5K2C; read-out: % Of control) was 2.3% and the kinase inhibition (MLK3) was 100. The kinase inhibition (NIM1) was 100, the “remaining binding (% of control)” value (EGFR(E746-A750del)) was 69 and the “percent of control binding” value (DYRK2; 10 µM) was 20. It also gave a remaining binding at 10 µM (DYRK2; read-out: % Of control) of 20%, a kinase inhibition (NEK9) of 100 and a kinase inhibition (CDKL1) of 100. For the same compound, the kinase inhibition (HIPK3) was 98, the kinase inhibition (MKK7) was 100 and the kinase inhibition (TNIK) was 75. The Concentration [2] was 7.9 µM, the kinase inhibition (KIT(V559DV654A)) was 87 and the kinase inhibition (TSSK1B) was 87. For the same compound, the kinase inhibition (CSNK1G1) was 85, the kinase inhibition (RET(V804L)) was 100 and the kinase inhibition (CHEK1; CHEK1, 10 µM) was 100. The remaining binding at 10 µM (CHEK1; CHK1, read-out: Kinome scan (% of control at 10 µM)) was 100%, the kinase inhibition (CAMK1D) was 100 and the kinase inhibition (MEK4) was 48. For the same compound, the kinase inhibition (EPHA3) was 81, the kinase inhibition [3] was 77 and the “remaining binding (% of control)” value (PIM1; 10 µM) was 100. It also gave a remaining binding at 10 µM (PIM1; read-out: Kinome scan (% of control at 10 µM)) of 100% and a kinase inhibition (ROCK1) of 78.

Source: paper PMC8371461 (Frontiers in Pharmacology, 2021)
